We go through two compounds from patent US10577364B2, “Crystalline form of fused pyridine derivative's maleate and uses thereof” (priority 2015, dated 2020).

Data set [1] can be described thus: Kinetic solubility in H2O at RT. Conditions: for pH / Form Change: H2O, RT; for Form Change: residual solids by XRPD.
Procedure: (§1) Kinetic solubility of the Crystalline Form of Formula I and N-(4-(2,3-dihydro-1H-pyrrolo[2,3-b]pyridin-4-yloxy)-3-fluorophenyl)-5-(4-fluorophenyl)-4-oxo-1,4-dihydropyridine-3-carboxamide (the Compound of Formula II) was studied in H2O at RT. After stirring approximate 4 mg solid in per 2 mL H2O at RT for a set amount of time, 0.6 mL suspension was centrifuged with the residual solids analyzed by XRPD and the concentrations in supernatants measured by high performance liquid chromatography (HPLC).
The nature of data set [2]: Pharmacokinetic study, oral administration to fasted SD rats. The conditions noted are these: for AUC(0-inf) / AUC(0-t) / Cmax / Tmax / half-life: SD, rat, plasma, po, 50 mg/kg.
Source text: (§2) The Compound of Formula II and the Crystalline Form of Formula I were ground to fine particles. The material content (purity) was not less than 99.0%. Sodium carboxymethyl cellulose was medical supply graded.
(§3) Experimental animals: SD rats were divided to a Compound of Formula II group and a Crystalline Form of Formula I group, with both groups consisting of three males and three females.
(§4) Pharmaceutical preparation: each compound was formulated in 0.5% (w/v) aqueous sodium carboxymethyl cellulose and the final concentration of each compound was 10 mg/mL.
(§5) Administration and sample collection: each suspension was administered orally to fasted SD rats at a dose equivalent to 50 mg/kg the Compound of Formula II in a dose volume of 5 mL/kg. The blood samples were collected in EDTA-K pre anticoagulant tubes just before dosing (0 h) and at 0.5, 1, 1.5, 2, 4, 6, 8 and 24 hrs after dosing. The plasma from these samples was separated by centrifugation at 3000 rpm for 10 min at 4° C. The plasma samples were collected and stored at −80° C. until analysis.
(§6) Samples were analyzed by HPLC. Chemical ingredients were separated on a C18 DIKMA Platisil column (250×4.6 mm, 5 μm). An Isocratic mobile phase system consisting of acetonitrile-water (55:45) with 0.02 mol/L of sodium dihydrogen phosphate (adjusted pH to 6.0 by using sodium hydroxide solution) employed for sample analysis. The sample injection volume was 20 μL and the detection wavelength was 302 nm.
A short description of another data set: physchem. The conditions noted are these: water, thermodynamic from solid.
A short description of data set [3]: Thermodynamic stability, stress test storage, XRPD. In kind it is physicochemical. The conditions noted are these: 40° C.±2° C./RH75%±5%, aluminum-plastic composite film bag, 0 m, 1 m, 2 ms, 3 ms, or 6 ms. Here is the method: About 500 g of the Crystalline Form of Formula I was placed into a bag of aluminum-plastic composite film, and the bag was stored under stress test conditions of 40° C.±2° C./RH75%±5% for 0 m, 1 m, 2 ms, 3 ms, or 6 ms.

The nature of data set [4]: Long term stability storage, XRPD. It counts as physicochemical. Conditions: 25° C.±2° C./RH60%±10%, aluminum-plastic composite film bag, 0 m to 36 ms. Here is the method: About 500 g of the Crystalline Form of Formula I was placed into a bag of aluminum-plastic composite film, and the bag was stored under conditions of 25° C.±2° C./RH60%±10% for 0 m, 3 ms, 6 ms, 9 ms, 12 ms, 18 ms, 24 ms, or 36 ms.

The next data set can be described thus: in vivo. Conditions: SD, rat, po, 50 mg/kg.
Setting [5] is: water, thermodynamic from solid.

Source text for in vivo: as §2, §3, §4, §5, §6
Procedure for physchem: as §1

As for `O=C(Nc1ccc(Oc2ccnc3c2CCN3)c(F)c1)c1c[nH]cc(-c2ccc(F)cc2)c1=O` [The Compound of Formula II, N-(4-(2,3-dihydro-1H-pyrrolo[2,3-b]pyridin-4-yloxy)-3-fluorophenyl)-5-(4-fluorophenyl)-4-oxo-1,4-dihydropyridine-3-carboxamide], in data set [1] (1 h), the pH was 7.2 and the “Form Change” value is reported as “No”. Moreover, in data set [1] (4 hrs), the pH is given as 7.3 and the “Form Change” value is reported as “No”. For the same compound, in data set [1] (24 hrs), the pH amounted to 7.3 and the “Form Change” value is “No”. In addition, in data set [1] (setting [5]), the solubility (kinetic) at 1 h is 0.0008 mg/mL, the kinetic solubility at 4 h was determined as 0.0011 mg/mL and the solubility (kinetic) at 24 h stood at 0.0005 mg/mL. Also, in data set [2] (female), the AUC(0-inf) turned out to be 18.2 ± 4.6 µg·h/mL, the AUC(0-t) came to 9.7 ± 6.3 µg·h/mL, the Cmax was found to be 1.9 ± 1.1 µg/mL and the Tmax came to 6 ± 2 h. The same compound gave a half-life in data set [2] (female) of 4.7 ± 3.7 h. Further, in data set [2] (male), the AUC(0-inf) came out at 17.1 ± 7 µg·h/mL, the AUC(0-t) came out at 10.1 ± 2.9 µg·h/mL, the Cmax is 2.2 ± 0.6 µg/mL and the Tmax was 4.5 ± 2.6 h. The compound also had a half-life in data set [2] (male) of 6.4 ± 2.6 h.

In “physchem”, `O=C(Nc1ccc(Oc2ccnc3c2CCN3)c(F)c1)c1c[nH]cc(-c2ccc(F)cc2)c1=O.O=C(O)/C=C\C(=O)O` [The Crystalline Form of Formula I, N-(4-(2,3-dihydro-1H-pyrrolo[2,3-b]pyridin-4-yloxy)-3-fluorophenyl)-5-(4-fluorophenyl)-4-oxo-1,4-dihydropyridine-3-carboxamide maleate] registered a solubility (kinetic) at 1 h of 0.059 mg/mL, a solubility (kinetic) at 4 h of 0.0478 mg/mL and a kinetic solubility at 24 h of 0.0983 mg/mL. Also, in data set [1] (1 h), the pH is 4.3 and the “Form Change” value was “No”. In addition, in data set [1] (4 hrs), the pH amounted to 4.1 and the “Form Change” value is “No”. In data set [1] (24 hrs), the pH is listed as 3.8 and the “Form Change” value is reported as “No”. Moreover, the “Crystalline Form determined by XRPD after storage (thermodynamic stability)” value in data set [3] is recorded as “purely the Crystalline Form of formula I”. The “Absorption compared with the Compound of Formula II” value in data set [2] (SD rats, oral, dose equivalent to 50 mg/kg the Compound of Formula II) is given as “higher absorption than the Compound of Formula II”. In data set [4], the “Crystalline Form determined by XRPD after storage (long term stability)” value is “purely the Crystalline Form of formula I”. In the data set “in vivo” (female), the AUC(0-inf) stood at 49.3 ± 22.2 µg·h/mL, the AUC(0-t) came out at 46.4 ± 21.6 µg·h/mL, the concentration peaked (Cmax) at 7.5 ± 0.7 µg/mL and the Tmax was 2 h. Also, the half-life in the data set “in vivo” (female) is 3.7 ± 2.8 h. For the same compound, in the data set “in vivo” (male), the AUC(0-inf) stood at 17 ± 6.1 µg·h/mL, the AUC(0-t) was 15.9 ± 5.1 µg·h/mL, the highest level (Cmax) was 3.9 ± 0.7 µg/mL and the Tmax stood at 2.7 ± 1.2 h. The half-life in “in vivo” (male) is 1.7 ± 0.9 h.
